This is an account of results in patent US20190298721A1, “STABLE PRO-VITAMIN DERIVATIVE COMPOUNDS, PHARMACEUTICAL AND DIETARY COMPOSITIONS, AND METHODS OF THEIR USE” (CORNELL UNIVERSITY, priority 2016, published 2019).

A short description of data set [1]: Chemical stability of folates incubated in Defined αMEM at 65° C., read out by L. casei assay. Particulars: for Chemical stability relative to 5-methyltetrahydrofolate: 65° C., pH 7.2, Defined αMEM (FIG. 8); for Chemical stability (support of growth in the microbiological assay): after 24 hours incubation at 65° C., pH 7.2 (FIG. 8). In kind it is physicochemical. How it is done:
Folic acid and various reduced folates were incubated in Defined αMEM (described above) in sterile Eppendorf tubes at 65° C. and sampled at 0, 0.5, 1, 2, 4, 8, and 24 hours. The sampled aliquots were immediately mixed with L. casei extraction buffer containing sodium ascorbate to protect folates from oxidative degradation and frozen at −80° C. The L. casei assay was performed as previously described (Suh et al., “Purification and Properties of a Folate-Catabolizing Enzyme,” J Biol. Chem. 275(45):35646-35655 (2000), which is hereby incorporated by reference in its entirety).

Data set [2] relates to immortalized mouse fibroblasts (CHIP) cells. Description: Cell proliferation of immortalized mouse fibroblasts (CHIP) in Defined αMEM supplemented with folate forms (bright field image analysis). It is filed as cell-based. Particulars: range of concentrations, approximately three doublings, compared with Leucovorin and folic acid (FIG. 6B). How it is done:
(§1) HeLa cells and immortalized mouse fibroblasts (CHIP) cells were plated in 96-well plates, 1000 cells per well. Total cell number was monitored over time using bright field image analysis on a Celigo cytometer (Nexcelom, Inc.) according to manufacturers' protocols. Data was represented as average±standard deviation for 10 biological replicates per condition. Cells were cultured in Defined αMEM culture media (lacking folate, serine, glycine, methionine, nucleosides/nucleotides, and pyridoxine) which was supplemented with 200 μM methionine, 0.5 g/L pyridoxine, and varying concentrations of folic acid, (6S)-Leucovorin or novel folate derivative. Before plating for proliferation assays, HeLa cells and CHIP cells were cultured for three doublings in Defined αMEM lacking folate to deplete intracellular folates.

In data set [3] the test system is HeLa cells. Description: Cell proliferation of HeLa cells in Defined αMEM supplemented with folate forms (bright field image analysis). It is filed as cell-based. Particulars: range of concentrations, approximately three doublings, compared with Leucovorin and folic acid (FIGS. 6A, 6C). How it is done:
as §1

Data set [4] relates to HeLa cells. Description: Total intracellular folate measurement in HeLa cells (L. casei microbiological assay). In kind it is cell-based. On the procedure:
HeLa cells were cultured in Defined αMEM (as described above) lacking folate for two doublings to deplete cellular folates, then plated into 6-well plates (1000 cells/well) and cultured for two cell doublings with Defined αMEM culture media (described above) supplemented with 200 μM methionine, 0.5 g/L pyridoxine, and either 2 nM or 20 nM (6S)-Leucovorin or novel folate derivative. Total intracellular folates were quantified using a microbiological (Lactobacillus casei, or L. casei) assay as previously described (Suh et al., “Purification and Properties of a Folate-Catabolizing Enzyme,” J. Biol. Chem. 275(45):35646-35655 (2000), which is hereby incorporated by reference in its entirety). Data is represented as mean±SEM of three biological replicates per condition.

The nature of data set [5]: Stability in AIN-93G mouse food pellets. It is filed as physicochemical. Particulars: for at least 10 weeks; pellets stored at room temperature or −20° C. (FIGS. 9A-B). How it is done: Folic acid and (6S)-5-formyl, 10-formyl-tetrahydrofolate were shipped to Dyets, Bethlehem, Pa. as folate sources for the formulation of AIN-93G, a defined growth diet formulated for rodents by the American Institute of Nutrition. The stability of folic acid and (6S)-5-formyl, 10-formyl-tetrahydrofolate in food pellets was determined over a 10 week period.

Data set [6] can be described thus: Mice fed AIN-93G diet containing the folate source (growth, adverse symptoms). Particulars: for Mouse growth: AIN-93G diet with the compound as folate source, over at least an 8-week period. In kind it is in vivo, mouse.
Data set [7] is described as follows: Acid stability (conversion to 5,10-methenyltetrahydrofolate). It is filed as physicochemical. Particulars: conversion to 5,10-methenyltetrahydrofolate in acid; no method described.

Turning to `CN1c2c(nc(N)[nH]c2=O)NC[C@H]1CN(C=O)c1ccc(C(=O)N[C@@H](CCC(=O)O)C(=O)O)cc1` [(6S)-5-methyl, 10-formyltetrahydrofolate], the “Chemical stability relative to 5-methyltetrahydrofolate” value is recorded as “chemically more stable than 5-methyltetrahydrofolate” in data set [1] and “increased chemical stability relative to (6S) 5-methyltetrahydrofolate” in data set [1] (10-formyltetrahydrofolate). Moreover, the “Proliferation / support of cell growth” value was “support cell growth in a similar dose-response as (6S)-Leucovorin and are superior to folic acid” in data set [2] (10-formyl-THF); “support cell growth in a similar dose-response as (6S)-Leucovorin and are superior to folic acid” with HeLa cells [3] (10-formyl-THF). Besides, the Total cellular folate entry in the data set on HeLa cells [4] (HeLa cells cultured with 20 nM compound, compared with 2 nM (6S)-Leucovorin) is “equivalent to total cellular folate in HeLa cells cultured in 2 nM (6S)-Leucovorin”. The “Total intracellular folate levels” value in the data set on HeLa cells [4] (HeLa cells, 2 nM or 20 nM folate form, (6S)-Leucovorin vs (6S)-5-methyl, 10-formyltetrahydrofolate (FIG. 7)) is reported as “higher with (6S)-Leucovorin than with (6S)-5-methyl, 10-formyltetrahydrofolate”.
As for `Nc1nc2ncc(CNc3ccc(C(=O)N[C@@H](CCC(=O)O)C(=O)O)cc3)nc2c(=O)[nH]1` [folic acid, reference compound], in data set [1], the “Chemical stability (support of growth in the microbiological assay)” value was “continued to support growth”. Further, in data set [5], the “Stability as a component of AIN-93G rodent food” value is reported as “completely stable”. Moreover, the Mouse growth result in data set [6] was “promote mouse growth”.
Take `Nc1nc2c(c(=O)[nH]1)N(C=O)[C@@H](CNc1ccc(C(=O)N[C@@H](CCC(=O)O)C(=O)O)cc1)CN2` [(6S)-Leucovorin, (6S)-5-formyltetrahydrofolate, reference compound]: the “Chemical stability (support of growth in the microbiological assay)” value in data set [1] is “continued to support growth”. In addition, the Stability in acid result in data set [7] was “unstable in acid”.
`CN1c2c(nc(N)[nH]c2=O)NC[C@@H]1CNc1ccc(C(=O)N[C@@H](CCC(=O)O)C(=O)O)cc1` [5-methyl-tetrahydrofolate, (6S) 5-methyltetrahydrofolate, reference compound]: the “Chemical stability (support of growth in the microbiological assay)” value in data set [1] was “completely destroyed”.
Consider `Nc1nc2c(c(=O)[nH]1)N(C=O)[C@H](CN(C=O)c1ccc(C(=O)N[C@@H](CCC(=O)O)C(=O)O)cc1)CN2` [(6S)-5-formyl, 10-formyltetrahydrofolate], for which the “Chemical stability relative to 5-methyltetrahydrofolate” value is on record as “chemically more stable than 5-methyltetrahydrofolate” in data set [1] and “increased chemical stability relative to (6S) 5-methyltetrahydrofolate” in data set [1] (10-formyltetrahydrofolate). In addition, the “Proliferation / support of cell growth” value in data set [2] (10-formylTHF) was “support cell growth in a similar dose-response as (6S)-Leucovorin and are superior to folic acid”; in the data set on HeLa cells [3] (10-formylTHF), “support cell growth in a similar dose-response as (6S)-Leucovorin and are superior to folic acid”. Further, the “Stability as a component of AIN-93G rodent food” value in data set [5] is “completely stable”. Also, the Mouse growth entry in data set [6] is on record as “promote mouse growth”. Also, the Adverse symptoms entry in data set [6] (mice fed AIN-93G diet containing the compound for 8 weeks) was “without any adverse symptoms”.
